From patent publication EP0745599A2, “1-(3-Heterocyclylphenyl)-s-triazine-2,4,6-oxo or thiotrione herbicidal agents” (American Cyanamid Company, priority 1995, dated 1996)

Assays:
Type in all cases: in vivo
Settings in all cases: rated four to five weeks after treatment
[1] = tested on: AMBROSIA ARTEMISIIFOLIA, L.; assay: Postemergence herbicidal evaluation, AMBEL (Ragweed, Common)
Description: (§1) In the tests, seedling plants are grown in jiffy flats for about two weeks. The test compounds are dispersed in 50/50 acetone/water mixtures containing 0.5% TWEEN®20, a polyoxyethylene sorbitan monolaurate surfactant of Atlas Chemical Industries, in sufficient quantities to provide the equivalent of about 0.125 kg to 0.500 kg per hectare of active compound when applied to the plants through a spray nozzle operating at 40 psi for a predetermined time. After spraying, the plants are placed on greenhouse benches and are cared for in the usual manner, commensurate with conventional greenhouse practices. From four to five weeks after treatment, the seedling plants are examined and rated according to the rating system set forth below. Where more than one test is involved for a given compound, the data are averaged.
(§2) Results of herbicide evaluation are expressed on a rating scale (0-9). The scale is based upon a visual observation of plant stand, vigor, malformation, size, chlorosis and overall plant appearance as compared with a control.

[2] = tested on: CASSIA OBTUSIFOLIA, L.; assay: Postemergence herbicidal evaluation, CASOB (Sicklepod)
Description: as §1, §2

[3] = tested on: CHENOPODIUM ALBUM, L.; assay: Postemergence herbicidal evaluation, CHEAL (Lambsquarters, Common)
Description: as §1, §2

[4] = tested on: ECHINOCHLOA CRUS-GALLI, (L) BEAU; assay: Postemergence herbicidal evaluation, ECHCG (Barnyardgrass)
Method in brief: (§3)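 Greenhouse postemergence test: two-week seedlings, 40 psi spray of 0.125–0.500 kg/ha active in acetone/water with surfactant. Scored visually 0–9 at 4–5 weeks.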

[5] = tested on: ABUTILON THEOPHRASTI, MEDIC.; assay: Preemergence herbicidal evaluation, ABUTH (Velvetleaf)
Method in brief: (§4)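 Seeds mixed with potting soil were planted over about one inch of soil, then sprayed with aqueous acetone solution of test compound at about 0.125 to 0.50 kg per hectare. Cups were kept under standard greenhouse care, and plants were rated visually on a 0-9 scale versus control after four to five weeks.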

[6] = tested on: AMBROSIA ARTEMISIIFOLIA, L.; assay: Preemergence herbicidal evaluation, AMBEL (Ragweed, Common)
Method in brief: as §4

[7] = tested on: CASSIA OBTUSIFOLIA, L.; assay: Preemergence herbicidal evaluation, CASOB (Sicklepod)
Method in brief: as §4

[8] = tested on: CHENOPODIUM ALBUM, L.; assay: Preemergence herbicidal evaluation, CHEAL (Lambsquarters, Common)
Method in brief: as §4

[9] = tested on: IPOMOEA SPP.; assay: Preemergence herbicidal evaluation, IPOSS (Morningglory Spp.)
Method in brief: as §4

[10] = tested on: GALIUM APARINE; assay: Preemergence herbicidal evaluation, GALAP (Galium)
Method in brief: as §4

[11] = tested on: ECHINOCHLOA CRUS-GALLI, (L) BEAU; assay: Preemergence herbicidal evaluation, ECHCG (Barnyardgrass)
Method in brief: as §4

[12] = tested on: SETARIA VIRIDIS, (L) BEAU; assay: Preemergence herbicidal evaluation, SETVI (Foxtail, Green)
Method in brief: as §4

[13] = tested on: GLYCINE MAX(L)MERR. CV. WILLIAMS; assay: Preemergence herbicidal evaluation, GLXMAW (Soybean, Williams)
Method in brief: as §4

[14] = tested on: ORYZA SATIVA, L. TEBONNET; assay: Preemergence herbicidal evaluation, ORYSAT (Rice, Tebonnet)
Method in brief: as §4

[15] = tested on: TRITICUM AESTIVUM, CV. APOLLO; assay: Preemergence herbicidal evaluation, TRZAWO (Wheat, Winter, CV. APOLLO)
Method in brief: as §4

[16] = tested on: ZEA MAYS L.; assay: Preemergence herbicidal evaluation, ZEAMX (Corn, Field)
Method in brief: as §4

[17] = tested on: ABUTILON THEOPHRASTI, MEDIC.; assay: Postemergence herbicidal evaluation, ABUTH (Velvetleaf)
Description: as §1, §2

[18] = tested on: TRITICUM AESTIVUM, CV. APOLLO; assay: Postemergence herbicidal evaluation, TRZAWO (Wheat, Winter, CV. APOLLO)
Description: as §1, §2

[19] = tested on: SETARIA VIRIDIS, (L) BEAU; assay: Postemergence herbicidal evaluation, SETVI (Foxtail, Green)
Method in brief: as §3

[20] = tested on: GLYCINE MAX(L)MERR. CV. WILLIAMS; assay: Postemergence herbicidal evaluation, GLXMAW (Soybean, Williams)
Description: as §1, §2

[21] = tested on: ORYZA SATIVA, L. TEBONNET; assay: Postemergence herbicidal evaluation, ORYSAT (Rice, Tebonnet)
Description: as §1, §2

## COC(=O)Cn1c(=O)n(C)c(=O)n(-c2cc(N3C(=O)C4=C(CCCC4)C3=O)ccc2F)c1=O [Compound 5, Methyl 3-[5-(1-cyclohexene-1,2-dicarbox-imido)-2-fluorophenyl]tetrahydro-5-methyl-2,4,6-trioxo-s-triazine-1(2H)-acetate]
[1]; 0.125 kg/ha
  Herbicide rating (0-9) AMBEL: 2.0
[1]; 0.250 kg/ha
  Herbicide rating (0-9) AMBEL: 2.0
[1]; 0.500 kg/ha
  Herbicide rating (0-9) AMBEL: 2.0
[2]; 0.125 kg/ha
  Herbicide rating (0-9) CASOB: 0.0
[2]; 0.250 kg/ha
  Herbicide rating (0-9) CASOB: 0.0
[2]; 0.500 kg/ha
  Herbicide rating (0-9) CASOB: 0.0
[3]; 0.125 kg/ha
  Herbicide rating (0-9) CHEAL: 0.0
[3]; 0.250 kg/ha
  Herbicide rating (0-9) CHEAL: 0.0
[3]; 0.500 kg/ha
  Herbicide rating (0-9) CHEAL: 0.0
[4]; 0.125 kg/ha
  Herbicide rating (0-9) ECHCG: 0.0
[4]; 0.250 kg/ha
  Herbicide rating (0-9) ECHCG: 0.0
[4]; 0.500 kg/ha
  Herbicide rating (0-9) ECHCG: 0.0
[5]; 0.125 kg/ha
  Herbicide rating (0-9) ABUTH: 0.0
[5]; 0.250 kg/ha
  Herbicide rating (0-9) ABUTH: 0.0
[5]; 0.500 kg/ha
  Herbicide rating (0-9) ABUTH: 0.0
[6]; 0.125 kg/ha
  Herbicide rating (0-9) AMBEL: 0.0
[6]; 0.250 kg/ha
  Herbicide rating (0-9) AMBEL: 0.0
[6]; 0.500 kg/ha
  Herbicide rating (0-9) AMBEL: 0.0
[7]; 0.125 kg/ha
  Herbicide rating (0-9) CASOB: 0.0
[7]; 0.250 kg/ha
  Herbicide rating (0-9) CASOB: 0.0
[7]; 0.500 kg/ha
  Herbicide rating (0-9) CASOB: 0.0
[8]; 0.125 kg/ha
  Herbicide rating (0-9) CHEAL: 0.0
[8]; 0.250 kg/ha
  Herbicide rating (0-9) CHEAL: 0.0
[8]; 0.500 kg/ha
  Herbicide rating (0-9) CHEAL: 0.0
[9]; 0.125 kg/ha
  Herbicide rating (0-9) IPOSS: 0.0
[9]; 0.250 kg/ha
  Herbicide rating (0-9) IPOSS: 0.0
[9]; 0.500 kg/ha
  Herbicide rating (0-9) IPOSS: 0.0
[10]; 0.125 kg/ha
  Herbicide rating (0-9) GALAP: 0.0
[10]; 0.250 kg/ha
  Herbicide rating (0-9) GALAP: 0.0
[10]; 0.500 kg/ha
  Herbicide rating (0-9) GALAP: 0.0
[11]; 0.125 kg/ha
  Herbicide rating (0-9) ECHCG: 0.0
[11]; 0.250 kg/ha
  Herbicide rating (0-9) ECHCG: 0.0
[11]; 0.500 kg/ha
  Herbicide rating (0-9) ECHCG: 0.0
[12]; 0.125 kg/ha
  Herbicide rating (0-9) SETVI: 0.0
[12]; 0.250 kg/ha
  Herbicide rating (0-9) SETVI: 0.0
[12]; 0.500 kg/ha
  Herbicide rating (0-9) SETVI: 0.0
[13]; 0.125 kg/ha
  Herbicide rating (0-9) GLXMAW: 0.0
[13]; 0.250 kg/ha
  Herbicide rating (0-9) GLXMAW: 0.0
[13]; 0.500 kg/ha
  Herbicide rating (0-9) GLXMAW: 0.0
[14]; 0.125 kg/ha
  Herbicide rating (0-9) ORYSAT: 0.0
[14]; 0.250 kg/ha
  Herbicide rating (0-9) ORYSAT: 0.0
[14]; 0.500 kg/ha
  Herbicide rating (0-9) ORYSAT: 0.0
[15]; 0.125 kg/ha
  Herbicide rating (0-9) TRZAWO: 0.0
[15]; 0.250 kg/ha
  Herbicide rating (0-9) TRZAWO: 0.0
[15]; 0.500 kg/ha
  Herbicide rating (0-9) TRZAWO: 0.0
[16]; 0.125 kg/ha
  Herbicide rating (0-9) ZEAMX: 0.0
[16]; 0.250 kg/ha
  Herbicide rating (0-9) ZEAMX: 0.0
[16]; 0.500 kg/ha
  Herbicide rating (0-9) ZEAMX: 0.0

## CC(C)OC(=O)Cn1c(=O)n(C)c(=O)n(-c2cc(N3C(=O)C4CSCCN4C3=O)c(F)cc2Cl)c1=O (stereo not drawn) [Compound 12, Isopropyl 3-{2-chloro-4-fluoro-5-[5,6,8,8a-tetrahydro-1,3-dioxo-1H-imidazo[5,1c][1,4]-thiazin-2(3H)-yl]phenyl}tetrahydro-5-methyl-2,4,6-trioxo-s-triazine-1(2H)-acetate]
[17]; 0.125 kg/ha
  Herbicide rating (0-9) ABUTH: 9.0
[17]; 0.250 kg/ha
  Herbicide rating (0-9) ABUTH: 9.0
[17]; 0.500 kg/ha
  Herbicide rating (0-9) ABUTH: 9.0
[1]; 0.125 kg/ha
  Herbicide rating (0-9) AMBEL: 9.0
[1]; 0.250 kg/ha
  Herbicide rating (0-9) AMBEL: 9.0
[1]; 0.500 kg/ha
  Herbicide rating (0-9) AMBEL: 9.0
[2]; 0.125 kg/ha
  Herbicide rating (0-9) CASOB: 9.0
[2]; 0.250 kg/ha
  Herbicide rating (0-9) CASOB: 9.0
[2]; 0.500 kg/ha
  Herbicide rating (0-9) CASOB: 9.0
[3]; 0.125 kg/ha
  Herbicide rating (0-9) CHEAL: 9.0
[3]; 0.250 kg/ha
  Herbicide rating (0-9) CHEAL: 9.0
[3]; 0.500 kg/ha
  Herbicide rating (0-9) CHEAL: 9.0
[18]; 0.125 kg/ha
  Herbicide rating (0-9) TRZAWO: 2.5
[18]; 0.250 kg/ha
  Herbicide rating (0-9) TRZAWO: 2.5
[18]; 0.500 kg/ha
  Herbicide rating (0-9) TRZAWO: 2.5
[7]; 0.125 kg/ha
  Herbicide rating (0-9) CASOB: 9.0
[7]; 0.250 kg/ha
  Herbicide rating (0-9) CASOB: 9.0
[7]; 0.500 kg/ha
  Herbicide rating (0-9) CASOB: 9.0
[8]; 0.125 kg/ha
  Herbicide rating (0-9) CHEAL: 9.0
[8]; 0.250 kg/ha
  Herbicide rating (0-9) CHEAL: 9.0
[8]; 0.500 kg/ha
  Herbicide rating (0-9) CHEAL: 9.0
[11]; 0.125 kg/ha
  Herbicide rating (0-9) ECHCG: 0.0
[11]; 0.250 kg/ha
  Herbicide rating (0-9) ECHCG: 0.0
[11]; 0.500 kg/ha
  Herbicide rating (0-9) ECHCG: 0.0
[14]; 0.125 kg/ha
  Herbicide rating (0-9) ORYSAT: 0.0
[14]; 0.250 kg/ha
  Herbicide rating (0-9) ORYSAT: 0.0
[14]; 0.500 kg/ha
  Herbicide rating (0-9) ORYSAT: 0.0
[15]; 0.125 kg/ha
  Herbicide rating (0-9) TRZAWO: 0.0
[15]; 0.250 kg/ha
  Herbicide rating (0-9) TRZAWO: 0.0
[15]; 0.500 kg/ha
  Herbicide rating (0-9) TRZAWO: 0.0

## C=CCn1c(=O)n(CC=C)c(=O)n(-c2cc(N3C(=O)C4=C(CCCC4)C3=O)c(F)cc2Cl)c1=O [Compound 19, N-[4-Chloro-5-(3,5-diallylhexahydro-2,4,6-trioxo-s-triazin-1-yl)-2-fluorophenyl]-1-cyclohexene-1,2-dicarboximide]
[4]; 0.125 kg/ha
  Herbicide rating (0-9) ECHCG: 0.0
[4]; 0.250 kg/ha
  Herbicide rating (0-9) ECHCG: 0.0
[4]; 0.500 kg/ha
  Herbicide rating (0-9) ECHCG: 0.0
[19]; 0.125 kg/ha
  Herbicide rating (0-9) SETVI: 0.0
[19]; 0.250 kg/ha
  Herbicide rating (0-9) SETVI: 0.0
[19]; 0.500 kg/ha
  Herbicide rating (0-9) SETVI: 0.0
[20]; 0.125 kg/ha
  Herbicide rating (0-9) GLXMAW: 1.0
[20]; 0.250 kg/ha
  Herbicide rating (0-9) GLXMAW: 1.0
[20]; 0.500 kg/ha
  Herbicide rating (0-9) GLXMAW: 1.0
[21]; 0.125 kg/ha
  Herbicide rating (0-9) ORYSAT: 2.0
[21]; 0.250 kg/ha
  Herbicide rating (0-9) ORYSAT: 2.0
[21]; 0.500 kg/ha
  Herbicide rating (0-9) ORYSAT: 2.0
[18]; 0.125 kg/ha
  Herbicide rating (0-9) TRZAWO: 2.0
[18]; 0.250 kg/ha
  Herbicide rating (0-9) TRZAWO: 2.0
[18]; 0.500 kg/ha
  Herbicide rating (0-9) TRZAWO: 2.0
